According to ChEMBL document CHEMBL6177931, “Exploring diverse frontiers: Advancements of bioactive 4-aminoquinoline-based molecular hybrids in targeted therapeutics and beyond” (Eur J Med Chem, 2024):
In brackets after ≈: the same amount, converted by molar mass.

Legend:
[1] = target: Cholinesterases; ACHE & BCHE (Homo sapiens) (UniProt P06276+P22303); assay: Selectivity ratio of IC50 for inhibition of recombinant human AchE to IC50 for inhibition of human BchE; assay type: protein assay
[2] = tested on: DU-145; assay: Cytotoxicity against human DU-145 cells; assay type: functional, cell-based
[3] = tested on: MCF7; assay: Cytotoxicity against human MCF7 cells; assay type: functional, cell-based
[4] = tested on: MDA-MB-231; assay: Anticancer activity against human MDA-MB-231 cells; assay type: functional, cell-based
[5] = tested on: HepG2; assay: Anticancer activity against human HepG2 cells incubated for 48 hrs by MTT assay; assay type: functional, cell-based; conditions: HepG2, 48 h
[6] = tested on: HL-60; assay: Anticancer activity against human HL-60 cells incubated for 48 hrs by MTT assay; assay type: functional, cell-based; conditions: HL-60, 48 h
[7] = tested on: HeLa; assay: Anticancer activity against human HeLa cells incubated for 48 hrs by MTT assay; assay type: functional, cell-based
[8] = tested on: MCF7; assay: Anticancer activity against human MCF7 cells incubated for 48 hrs by MTT assay; assay type: functional, cell-based; conditions: MCF7, 48 h
[9] = tested on: Leishmania amazonensis; assay: Antileishmanial activity against Leishmania amazonensis amastigotes infected in mouse macrophages assessed as inhibition of parasite growth incubated for 72 hrs by giemsa staining based analysis; assay type: functional, organism-based; conditions: Macrophage
[10] = tested on: Leishmania amazonensis; assay: Antileishmanial activity against Leishmania amazonensis promastigotes infected in mouse macrophages assessed as inhibition of parasite growth incubated for 72 hrs by giemsa staining based analysis; assay type: functional, organism-based; conditions: Macrophage
[11] = Selectivity index, ratio of CC50 for cytotoxicity against mouse macrophage to IC50 for antileishmanial activity against Leishmania amazonensis amastigotes infected in mouse macrophages assessed as inhibition of parasite growth; assay type: toxicity, cell-based; conditions: read-out: Ratio CC50/IC50
[12] = Selectivity index, ratio of IC50 for cytotoxicity against African green monkey Vero cells to IC50 for antiplasmodial activity against D-sorbitol synchronized chloroquine-resistant Plasmodium falciparum W2; assay type: toxicity, cell-based; conditions: read-out: Ratio IC50
[13] = tested on: Mus musculus; assay: Anti-inflammatory activity against carrageenan-induced paw edema mouse model assessed as reduction in edema measured after 1 hrs relative to control; assay type: functional; design: scale not given: the % may be the effect or the level left
[14] = tested on: Mus musculus; assay: Anti-inflammatory activity against carrageenan-induced paw edema mouse model assessed as reduction in edema measured after 3 hrs relative to control; assay type: functional; design: scale not given: the % may be the effect or the level left
[15] = tested on: Mus musculus; assay: Anti-inflammatory activity against carrageenan-induced paw edema mouse model assessed as reduction in edema measured after 2 hrs relative to control; assay type: functional; design: scale not given: the % may be the effect or the level left
[16] = target: Cholinesterase (Equus caballus, UniProt P81908); assay: Inhibition of equine serum BChE using […] as substrate measured within 2 mins
[17] = target: Acetylcholinesterase (Electrophorus electricus, UniProt O42275); assay: Inhibition of electric eel AChE using […] as substrate measured within 2 mins
[18] = target: Beta-secretase 1 (Homo sapiens, UniProt P56817); assay: Inhibition of BACE1 (unknown origin) by FRET assay
[19] = tested on: Pseudomonas aeruginosa; assay: Antibacterial activity against Pseudomonas aeruginosa NCIM-2036 incubated for 16 to 24 hrs by broth microdilution method; assay type: functional; conditions: time 16-24 hrs
[20] = tested on: Escherichia coli; assay: Antibacterial activity against Escherichia coli NCIM-2065 incubated for 16 to 24 hrs by broth microdilution method; assay type: functional; conditions: time 16-24 hrs
[21] = tested on: Proteus vulgaris; assay: Antibacterial activity against Proteus vulgaris […] NCIM-2027 incubated for 16 to 24 hrs by broth microdilution method; assay type: functional; conditions: time 16-24 hrs
[22] = tested on: Bacillus subtilis; assay: Antibacterial activity against Bacillus subtilis NCIM-2063 incubated for 16 to 24 hrs by broth microdilution method; assay type: functional; conditions: time 16-24 hrs
[23] = tested on: Bacillus cereus; assay: Antibacterial activity against Bacillus cereus NCIM-2156 incubated for 16 to 24 hrs by broth microdilution method; assay type: functional; conditions: time 16-24 hrs
[24] = tested on: Staphylococcus aureus; assay: Antibacterial activity against Staphylococcus aureus NCIM-2079 incubated for 16 to 24 hrs by broth microdilution method; assay type: functional; conditions: time 16-24 hrs
[25] = tested on: MDA-MB-468; assay: Growth inhibition of human MDA-MB-468 cells incubated for 48 hrs by SRB assay; assay type: functional
[26] = Growth inhibition of human MCF-10A cells incubated for 48 hrs by SRB assay; assay type: toxicity, cell-based
[27] = tested on: MCF7; assay: Growth inhibition of human MCF7 cells incubated for 48 hrs by SRB assay; assay type: functional
[28] = Growth inhibition of human 184B5 cells incubated for 48 hrs by SRB assay; assay type: toxicity, cell-based
[29] = tested on: MDA-MB-231; assay: Growth inhibition of human MDA-MB-231 cells incubated for 48 hrs by SRB assay; assay type: functional
[30] = Antiproliferative activity against human AG01522 cells assessed as reduction in cell viability incubated for 24 hrs by MTT assay; assay type: functional, cell-based; conditions: AG01522, 24 h
[31] = tested on: MCF7; assay: Antiproliferative activity against human MCF7 cells assessed as reduction in cell viability incubated for 24 hrs by MTT assay; assay type: functional, cell-based; conditions: MCF7, 24 h
[32] = tested on: HT-29; assay: Antiproliferative activity against human HT-29 cells assessed as reduction in cell viability incubated for 24 hrs by MTT assay; assay type: functional, cell-based; conditions: HT-29, 24 h
[33] = tested on: A549; assay: Antiproliferative activity against human A549 cells assessed as reduction in cell viability incubated for 24 hrs by MTT assay; assay type: functional, cell-based; conditions: A549, 24 h
[34] = tested on: A549; assay: Cytotoxicity against human A549 cells incubated for 24 hrs by MTT assay; assay type: functional, cell-based; conditions: A549, 24 h
[35] = target: Acetylcholinesterase (Homo sapiens, UniProt P22303); assay: Inhibition of AChE (unknown origin)
Acetylcholinesterase (Homo sapiens, UniProt P22303), sequence (P22303 whole entry): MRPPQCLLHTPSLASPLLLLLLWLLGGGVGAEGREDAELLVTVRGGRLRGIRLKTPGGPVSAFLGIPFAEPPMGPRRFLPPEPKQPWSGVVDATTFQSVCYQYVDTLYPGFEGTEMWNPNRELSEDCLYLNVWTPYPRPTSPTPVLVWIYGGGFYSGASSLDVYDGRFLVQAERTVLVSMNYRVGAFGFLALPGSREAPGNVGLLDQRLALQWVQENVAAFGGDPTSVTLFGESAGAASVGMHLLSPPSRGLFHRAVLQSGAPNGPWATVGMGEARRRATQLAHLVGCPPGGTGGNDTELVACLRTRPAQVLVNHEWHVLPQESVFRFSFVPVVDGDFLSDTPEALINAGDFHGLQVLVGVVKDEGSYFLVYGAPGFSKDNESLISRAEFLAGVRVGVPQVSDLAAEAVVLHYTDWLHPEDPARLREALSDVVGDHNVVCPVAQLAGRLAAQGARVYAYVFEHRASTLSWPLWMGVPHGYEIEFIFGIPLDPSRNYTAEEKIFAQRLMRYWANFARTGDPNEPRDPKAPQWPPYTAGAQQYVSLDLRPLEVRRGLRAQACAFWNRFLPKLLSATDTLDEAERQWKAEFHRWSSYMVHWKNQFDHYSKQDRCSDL

Beta-secretase 1, sequence (P56817 whole entry): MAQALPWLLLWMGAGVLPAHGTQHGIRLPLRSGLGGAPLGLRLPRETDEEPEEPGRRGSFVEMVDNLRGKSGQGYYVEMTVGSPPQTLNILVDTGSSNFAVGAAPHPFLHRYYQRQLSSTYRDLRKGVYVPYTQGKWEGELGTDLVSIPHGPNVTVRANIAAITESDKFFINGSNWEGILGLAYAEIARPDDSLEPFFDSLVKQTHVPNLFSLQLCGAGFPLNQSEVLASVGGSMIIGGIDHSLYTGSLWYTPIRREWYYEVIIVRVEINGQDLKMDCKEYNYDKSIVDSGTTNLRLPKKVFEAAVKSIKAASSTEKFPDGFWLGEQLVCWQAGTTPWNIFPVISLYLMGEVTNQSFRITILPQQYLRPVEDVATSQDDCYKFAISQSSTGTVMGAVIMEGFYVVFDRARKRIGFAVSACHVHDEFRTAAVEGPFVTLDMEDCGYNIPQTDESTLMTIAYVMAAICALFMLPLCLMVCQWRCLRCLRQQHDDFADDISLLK
Acetylcholinesterase (Electrophorus electricus, UniProt O42275), sequence (O42275 whole entry): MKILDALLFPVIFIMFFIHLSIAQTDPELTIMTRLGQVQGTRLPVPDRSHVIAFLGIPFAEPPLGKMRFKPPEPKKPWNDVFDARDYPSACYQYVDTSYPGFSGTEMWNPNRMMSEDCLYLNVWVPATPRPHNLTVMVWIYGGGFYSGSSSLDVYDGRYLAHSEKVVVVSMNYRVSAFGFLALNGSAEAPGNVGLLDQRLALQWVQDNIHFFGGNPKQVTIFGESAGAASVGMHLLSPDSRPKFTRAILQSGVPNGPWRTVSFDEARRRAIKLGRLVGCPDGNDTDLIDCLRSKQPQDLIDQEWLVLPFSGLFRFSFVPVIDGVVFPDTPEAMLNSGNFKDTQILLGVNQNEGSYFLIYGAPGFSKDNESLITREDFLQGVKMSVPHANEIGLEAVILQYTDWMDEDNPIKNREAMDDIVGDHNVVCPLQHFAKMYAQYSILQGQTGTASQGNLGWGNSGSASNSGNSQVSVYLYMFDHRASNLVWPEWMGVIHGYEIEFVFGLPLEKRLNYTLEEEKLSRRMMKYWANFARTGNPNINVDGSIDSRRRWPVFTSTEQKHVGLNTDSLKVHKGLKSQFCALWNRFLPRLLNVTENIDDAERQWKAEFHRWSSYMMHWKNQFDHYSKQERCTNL
Cholinesterase, sequence (P81908 whole entry): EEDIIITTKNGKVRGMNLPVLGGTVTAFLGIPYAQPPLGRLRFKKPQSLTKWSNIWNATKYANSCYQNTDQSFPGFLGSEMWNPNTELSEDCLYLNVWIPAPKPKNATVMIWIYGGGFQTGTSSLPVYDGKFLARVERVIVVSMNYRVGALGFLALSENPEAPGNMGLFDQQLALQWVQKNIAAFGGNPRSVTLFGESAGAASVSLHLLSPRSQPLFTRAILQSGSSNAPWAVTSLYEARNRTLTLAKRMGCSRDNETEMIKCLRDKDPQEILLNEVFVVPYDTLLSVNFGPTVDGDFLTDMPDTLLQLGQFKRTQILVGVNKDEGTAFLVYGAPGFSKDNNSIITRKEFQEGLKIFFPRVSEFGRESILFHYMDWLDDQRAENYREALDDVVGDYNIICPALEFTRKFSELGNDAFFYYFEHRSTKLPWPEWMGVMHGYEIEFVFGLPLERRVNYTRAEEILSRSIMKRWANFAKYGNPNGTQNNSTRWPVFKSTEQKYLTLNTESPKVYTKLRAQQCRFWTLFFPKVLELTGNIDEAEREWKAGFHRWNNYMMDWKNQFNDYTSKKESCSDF
Cholinesterases; ACHE & BCHE (Homo sapiens), sequence (P06276 whole entry, looked up): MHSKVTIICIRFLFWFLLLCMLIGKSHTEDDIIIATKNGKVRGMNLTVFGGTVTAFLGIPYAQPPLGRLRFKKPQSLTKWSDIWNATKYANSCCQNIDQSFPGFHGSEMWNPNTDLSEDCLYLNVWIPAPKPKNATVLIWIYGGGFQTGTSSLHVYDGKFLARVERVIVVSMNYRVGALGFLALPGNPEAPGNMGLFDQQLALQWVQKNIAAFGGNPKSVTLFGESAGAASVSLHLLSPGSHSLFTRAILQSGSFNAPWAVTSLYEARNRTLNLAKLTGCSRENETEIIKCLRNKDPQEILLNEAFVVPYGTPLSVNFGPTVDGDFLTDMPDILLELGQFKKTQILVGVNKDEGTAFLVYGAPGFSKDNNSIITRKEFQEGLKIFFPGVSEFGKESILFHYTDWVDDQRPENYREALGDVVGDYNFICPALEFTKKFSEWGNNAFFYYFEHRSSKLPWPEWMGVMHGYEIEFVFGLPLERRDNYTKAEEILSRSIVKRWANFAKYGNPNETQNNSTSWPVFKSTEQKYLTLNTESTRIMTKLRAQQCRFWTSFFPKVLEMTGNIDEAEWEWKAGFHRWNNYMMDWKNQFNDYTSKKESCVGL
Cholinesterases; ACHE & BCHE (Homo sapiens), sequence (P22303 whole entry, looked up): as the sequence (P22303 whole entry) above

Structure (SMILES): CC(CCNCCC12CC3CC(CC(C3)C1)C2)Nc1ccnc2cc(Cl)ccc12 (stereo not given)
- Ratio IC50 [1]: 10

Structure (SMILES): CC1(C)CC[C@]2(C(=O)O)CC[C@]3(C)C(=CC[C@@H]4[C@@]5(C)CC[C@H](O)C(C)(C)[C@@H]5CC[C@]43C)[C@@H]2C1 [OLEANOLIC_ACID]
- IC50 [2]: > 200 µM
- IC50 [3]: > 200 µM

Structure (SMILES): C[C@H]1[C@H](C)CC[C@]2(C(=O)OCCOCCNc3ccnc4cc(Cl)ccc34)CC[C@]3(C)C(=CC[C@@H]4[C@@]5(C)CC[C@H](O)C(C)(C)[C@@H]5CC[C@]43C)[C@H]12
- IC50 [4]: 85.6 µg/mL (≈ 121 µM)

Structure (SMILES): S=C(NNc1ccnc2cc(Cl)ccc12)Nc1nc(Nc2ccc(Cl)cc2)nc(Nc2ccc(Cl)cc2)n1
- IC50 [5]: 45.3 µM
- IC50 [6]: 26.3 µM
- IC50 [7]: 32.4 µM
- IC50 [8]: 32.3 µM

Structure (SMILES): CCCCCCCCCCn1cc(CNCCNc2ccnc3cc(Cl)ccc23)nn1
- IC50 [9]: 1.1 µM
- IC50 [10]: 5.7 µM
- selectivity ratio [11]: 16

Structure (SMILES): CCN(CC)c1ccc2c(c1)C(=O)N(CCC(=O)NCCNc1ccnc3cc(Cl)ccc13)C2=O
- selectivity ratio [12]: > 2000

Structure (SMILES): O=C(CN1CCN(c2ccccc2)CC1)N1CCN(c2ccnc3cc(Cl)ccc23)CC1
- Activity [13]: 34%
- Activity [14]: 64%
- Activity [15]: 50%

Structure (SMILES): Nc1c2c(nc3c1C(c1cccc([N+](=O)[O-])c1)C1=C(O3)C(=O)c3ccccc3C1=O)CCCC2 (stereo not given)
- IC50 [16]: 6.03 µM
- IC50 [17]: 0.86 µM
- IC50 [18]: 19.6 µM

Structure (SMILES): O=[N+]([O-])c1ccc(Nc2nc(NC(=S)NNc3ccnc4cc(Cl)ccc34)nc(Nc3ccc([N+](=O)[O-])cc3)n2)cc1
- MIC [19]: 3.12 µM (≈ 1.88 µg/mL)
- MIC [20]: 12.5 µM (≈ 7.55 µg/mL)
- MIC [21]: 3.12 µM (≈ 1.88 µg/mL)
- MIC [22]: 25 µM (≈ 15.1 µg/mL)
- MIC [23]: 12.5 µM (≈ 7.55 µg/mL)
- MIC [24]: 3.12 µM (≈ 1.88 µg/mL)

Structure (SMILES): O=[N+]([O-])c1ccc(S(=O)(=O)N2CCN(c3ccnc4cc(Cl)ccc34)CC2)c([N+](=O)[O-])c1
- GI50 [25]: 0.7 µM
- GI50 at 48 h [26]: 12.3 µM
- GI50 [27]: 2.3 µM
- GI50 at 48 h [28]: 9 µM
- GI50 [29]: 3.4 µM

Structure (SMILES): O=c1cc(CCl)n(CCCNc2ccnc3cc(Cl)ccc23)cc1OCc1ccccc1
- IC50 [30]: 2.87 µM
- IC50 [31]: 1.26 µM
- IC50 [32]: 1.41 µM
- IC50 [33]: 0.81 µM

Structure (SMILES): Cc1cccc2c(Nc3cccc4ncccc34)cc(Cl)nc12
- IC50 [34]: 29.4 µM

Structure (SMILES): O=P(NCCCCCCCCCCCCNc1c2c(nc3ccccc13)CCCC2)(Oc1ccccc1)Oc1ccccc1
- IC50 [35]: 24300 µM
